Reference: DBAASP
In brackets after ≈: the same amount, converted by molar mass. Several values for one entry are separate records, joined by “and”; a condition that tells them apart may be missing. Identical values can stand only once. Each block holds one compound with its values, some of them ahead of it.

Columns and labels:
Assay in all cases: ≥ marks a high value that may be exact or a test limit, other limits are often not marked, values filed in µg/mL are converted to µM
[1] = tested on: Pseudomonas aeruginosa M1251
[2] = tested on: Pseudomonas aeruginosa M917
[3] = tested on: Pseudomonas aeruginosa PAO1
[4] = tested on: Achromobacter xylosoxidans
[5] = tested on: Salmonella enterica serovar Typhimurium
Escherichia coli UB1005 = tested on: Escherichia coli UB1005
Staphylococcus aureus = tested on: Staphylococcus aureus
[6] = tested on: Pseudomonas aeruginosa M1426
[7] = tested on: Stenotrophomonas maltophilia
[8] = tested on: Pseudomonas aeruginosa R70
Pseudomonas fluorescens = tested on: Pseudomonas fluorescens
[9] = tested on: Pseudomonas aeruginosa M76
Ralstonia pickettii = tested on: Ralstonia pickettii
Candida albicans = tested on: Candida albicans
Pseudomonas aeruginosa = tested on: Pseudomonas aeruginosa
[10] = tested on: Pseudomonas aeruginosa Z61
[11] = tested on: Pseudomonas aeruginosa K799
[12] = tested on: Pseudomonas aeruginosa H374
[13] = tested on: Salmonella enterica subsp. enterica serovar Typhimurium ATCC 14028s
[14] = tested on: Pseudomonas aeruginosa H547
[15] = tested on: Pseudomonas aeruginosa H744
Aspergillus fumigatus = tested on: Aspergillus fumigatus
[16] = tested on: Mannheimia haemolytica Serovar 6
[17] = tested on: Mannheimia haemolytica Serovar 2
Pasteurella multocida = tested on: Pasteurella multocida
[18] = tested on: Corynebacterium pseudotuberculosis ATCC 19410
[19] = tested on: Mannheimia haemolytica Serovar 1
Klebsiella pneumoniae = tested on: Klebsiella pneumoniae
[20] = tested on: Salmonella enterica subsp. arizonae
Bibersteinia trehalosi = tested on: Bibersteinia trehalosi
[21] = tested on: Staphylococcus aureus ATCC BAA-1556
[22] = tested on: Bacillus subtilis ATCC 6633
[23] = tested on: Staphylococcus aureus FDA 209P
[24] = tested on: Pseudomonas aeruginosa ATCC 27853
[25] = tested on: Escherichia coli ATCC 25922
Streptococcus agalactiae = tested on: Streptococcus agalactiae
[26] = tested on: Staphylococcus aureus ATCC 25923
[27] = tested on: Enterococcus faecalis ATCC 29212
[28] = tested on: Acinetobacter calcoaceticus
[29] = tested on: Pseudomonas aeruginosa wt

SMILES: CC(C)C[C@H](NC(=O)[C@H](C)NC(=O)[C@H](CC(C)C)NC(=O)[C@H](C)NC(=O)[C@H](CC(C)C)NC(=O)[C@H](CCCCN)NC(=O)[C@H](C)NC(=O)[C@H](CC(C)C)NC(=O)[C@H](CCCCN)NC(=O)[C@H](CCCCN)NC(=O)[C@H](C)NC(=O)[C@H](CC(C)C)NC(=O)[C@H](CCCCN)NC(=O)[C@H](C)NC(=O)[C@H](CC(C)C)NC(=O)[C@H](CCCCN)NC(=O)[C@H](CCCCN)NC(=O)[C@H](C)NC(=O)[C@@H](N)C(C)C)C(N)=O [VAKKLAKLAKKLAKLALAL]
MIC [1]: 4.02 µM (≈ 8 µg/mL) | MIC [2]: 8.03 µM (≈ 16 µg/mL) | MIC [3]: 16.1 µM (≈ 32 µg/mL) | MIC [4]: ≥ 32.1 µM | MIC [5]: ≥ 32.1 µM | MIC (Escherichia coli UB1005): ≥ 32.1 µM | MIC (Staphylococcus aureus): 16.1 µM (≈ 32 µg/mL) | MIC [6]: 4.02 µM (≈ 8 µg/mL) | MIC [7]: 2.01 µM (≈ 4 µg/mL) | MIC [8]: 4.02 µM (≈ 8 µg/mL) | MIC (Pseudomonas fluorescens): 4.02 µM (≈ 8 µg/mL) | MIC [9]: 4.02 µM (≈ 8 µg/mL) | MIC (Ralstonia pickettii): 4.02 µM (≈ 8 µg/mL) | MIC (Candida albicans): 8.03 µM (≈ 16 µg/mL) | MIC (Pseudomonas aeruginosa): 4.02 µM and 5.68 µM

SMILES: CC[C@H](C)[C@H](NC(=O)[C@@H](NC(=O)[C@H](Cc1cnc[nH]1)NC(=O)[C@@H](NC(=O)[C@@H](NC(=O)[C@H](CCCCN)NC(=O)[C@H](CCCN=C(N)N)NC(=O)[C@@H](NC(=O)[C@@H](NC(=O)[C@H](CCCN=C(N)N)NC(=O)[C@@H](N)CCCN=C(N)N)[C@@H](C)CC)[C@@H](C)CC)[C@@H](C)CC)[C@@H](C)CC)[C@@H](C)CC)C(N)=O [RRIIRKIIHII]
MIC (Aspergillus fumigatus): 14 µM (≈ 20 µg/mL) | MIC [3]: 14 µM (≈ 20 µg/mL) | MIC [16]: 5.8 µM (≈ 8.29 µg/mL) | MIC [17]: 5.8 µM (≈ 8.29 µg/mL) | MIC (Pasteurella multocida): 14 µM (≈ 20 µg/mL) | MIC [18]: 14 µM (≈ 20 µg/mL) | MIC (Staphylococcus aureus): > 14 µM | MIC [19]: 11.7 µM (≈ 16.7 µg/mL) | MIC (Klebsiella pneumoniae): 10.5 µM (≈ 15 µg/mL) | MIC [20]: 14 µM (≈ 20 µg/mL) | MIC (Bibersteinia trehalosi): 14 µM (≈ 20 µg/mL)

SMILES: CC(C)C[C@H](NC(=O)[C@H](CC(C)C)NC(=O)[C@H](CCCCN)NC(=O)[C@H](CC(C)C)NC(=O)[C@H](CC(C)C)NC(=O)[C@H](CC(C)C)NC(=O)[C@H](CCCCN)NC(=O)[C@@H](N)CC(C)C)C(N)=O [LKLLLKLL]
MIC [21]: ≥ 100 µM

Results, then the compound that gave them:

MIC [10]: 6.68 µM (≈ 19 µg/mL) | MIC [11]: 11.3 µM (≈ 32 µg/mL) | MIC [12]: 1.41 µM (≈ 4 µg/mL) | MIC (Escherichia coli UB1005): 0.703 µM (≈ 2 µg/mL) | MIC [13]: 5.63 µM (≈ 16 µg/mL) | MIC [14]: 5.63 µM (≈ 16 µg/mL) | MIC [15]: 1.41 µM (≈ 4 µg/mL)
SMILES: CC[C@H](C)[C@H](NC(=O)[C@H](CC(C)C)NC(=O)[C@H](C)NC(=O)[C@@H]1CCCN1C(=O)[C@H](CC(C)C)NC(=O)CNC(=O)[C@@H](NC(=O)[C@@H](NC(=O)[C@H](CC(C)C)NC(=O)[C@@H](NC(=O)[C@H](CCCCN)NC(=O)[C@H](CO)NC(=O)CNC(=O)CNC(=O)[C@H](CCCCN)NC(=O)[C@@H](NC(=O)[C@H](CC(C)C)NC(=O)[C@H](CC(N)=O)NC(=O)[C@H](CCCCN)NC(=O)[C@@H](NC(=O)[C@H](Cc1ccccc1)NC(=O)[C@H](CCCCN)NC(=O)[C@H](CCCCN)NC(=O)[C@H](Cc1c[nH]c2ccccc12)NC(=O)[C@@H](N)CCCCN)[C@@H](C)CC)[C@@H](C)O)[C@@H](C)CC)[C@@H](C)O)[C@@H](C)O)C(=O)N[C@@H](CO)C(=O)O [KWKKFIKNLTKGGSKILTTGLPALIS]

MIC [22]: 20.4 µM (≈ 64 µg/mL) | MIC [23]: 11.3 µM (≈ 35.5 µg/mL)
SMILES: CC[C@H](C)[C@H](NC(=O)[C@@H](N)C(C)C)C(=O)N[C@@H](CC(=O)O)C(=O)N[C@@H](CC(=O)O)C(=O)N[C@@H](CC(C)C)C(=O)N[C@@H](CCCCN)C(=O)N[C@@H](CCCCN)C(=O)N[C@H](C(=O)N[C@@H](C)C(=O)N[C@@H](CCCCN)C(=O)N[C@@H](CCCCN)C(=O)N[C@H](C(=O)N[C@@H](CCCN=C(N)N)C(=O)N[C@@H](CCCN=C(N)N)C(=O)N[C@@H](CCC(=O)O)C(=O)N[C@@H](CC(C)C)C(=O)N[C@@H](CC(C)C)C(=O)N[C@@H](CS)C(=O)N[C@@H](CCCCN)C(=O)N[C@@H](CCCCN)C(=O)N[C@@H](Cc1cnc[nH]1)C(=O)N[C@@H](Cc1cnc[nH]1)C(=O)N[C@@H](CCCCN)C(=O)N[C@@H](CCCCN)C(=O)N[C@@H](CC(C)C)C(=O)N[C@@H](CC(N)=O)C(=O)O)C(C)C)C(C)C [VIDDLKKVAKKVRRELLCKKHHKKLN]

MIC [24]: 4 µM (≈ 8.06 µg/mL) | MIC [25]: 7.9 µM (≈ 15.9 µg/mL) | MIC (Staphylococcus aureus): 15.8 µM (≈ 31.8 µg/mL) | MIC (Streptococcus agalactiae): 3.9 µM (≈ 7.86 µg/mL) | MIC [26]: 7.9 µM (≈ 15.9 µg/mL) | MIC [27]: 4 µM (≈ 8.06 µg/mL) | MIC [28]: 7.9 µM (≈ 15.9 µg/mL) | MIC [29]: 3 µM (≈ 6.05 µg/mL) | MIC (Candida albicans): 7.9 µM (≈ 15.9 µg/mL) | MIC (Pseudomonas aeruginosa): 31.7 µM (≈ 63.9 µg/mL)
SMILES: CC[C@H](C)[C@H](NC(=O)[C@H](C)NC(=O)[C@H](CO)NC(=O)[C@@H](NC(=O)[C@H](C)NC(=O)[C@H](CC(N)=O)NC(=O)[C@@H](NC(=O)[C@H](C)NC(=O)[C@H](Cc1cnc[nH]1)NC(=O)[C@@H]1CCCN1C(=O)[C@@H](NC(=O)[C@H](CC(C)C)NC(=O)[C@H](CO)NC(=O)[C@H](CC(C)C)NC(=O)[C@@H](N)Cc1ccccc1)[C@@H](C)CC)[C@@H](C)CC)C(C)C)C(=O)N[C@@H](C)C(=O)N[C@@H](CCCCN)C(=O)N[C@@H](Cc1cnc[nH]1)C(=O)N[C@@H](CC(N)=O)C(N)=O [FLSLIPHAINAVSAIAKHN]
